Results as given in patent publication US4992418A, “Superactive human insulin analogue-[10-Aspartic Acid-B]Human Insulin” (Mount Sinai School of Medicine, priority 1987, dated 1991).

How the values were obtained:
[1] = target: T1, insulin receptors in rat liver plasma membranes (Rattus norvegicus, UniProt P15127); assay: Insulin receptor binding assay (125I-insulin displacement, rat liver plasma membranes)
T1 construct: Rat liver plasma membranes were prepared as described by Horvat et al; from tissue; host or cells: rat liver plasma membranes
Procedure: Receptor binding assays using rat liver plasma membranes were performed as described by Kitagawa et al., Biochemistry (1984), vol. 23, pp. 1405-1413. Rat liver plasma membranes were prepared as described by Horvat et al., Biochim. Biophys. Acta (1975), vol. 382, pp. 609-620.
Following incubation for 45 min at 24° C., the mixtures were diluted with 2.0 ml of ice cold 0.1M sodium phosphate, pH 7.4, containing 0.1% fraction V bovine serum albumin and immediately filtered through cellulose-acetate filters. The filters were washed twice with the ice cold buffer, dried, and then radioactivity was counted in a scintillation counter using Filtron-X®. Nonspecific binding, defined as radioactivity remaining on the filters when the incubations contained 1×10^-5 M unlabeled insulin, was subtracted from all values.
The data points shown in FIG. 3 represent the mean of triplicate determinations in a representative assay which was performed four times. The maximum binding in these assays amounted to 8.2% of the input radioactivity.

[2] = test system: Guinea pig antiserum to porcine insulin; conditions: relative to bovine or porcine insulin
Procedure: Guinea pig antiserum to porcine insulin and goat anti-guinea pig-γ globulin were used at a 1:25 dilution in assay buffer (sodium phosphate, 0.04M, pH 7.6, containing 0.154M NaCl, 0.1% gelatin, and 0.01% thimerosal). […] After incubation at room temperature overnight, 0.2 ml of the precipitating antibody (goat anti-guinea pig-γ globulin) was added, and the tubes were further incubated overnight at room temperature. Immune precipitates were collected on cellulose-acetate filters and washed with two successive 1.0 mL portions of ice-cold assay buffer. Filters were dried and radioactivity was counted in a scintillation counter in Filtron-X®. Straight-line plots of Co /Ci were constructed by linear regression analysis as described by Hales et al., Biochem. J. (1963), vol.

insulin receptors = insulin receptors (Rattus norvegicus, UniProt P15127); assay: Standard in vitro assays measuring relative insulin potency (summary statements); conditions: in vitro experiments of the Examples
Sequence of insulin receptors (P15127 27-759 limits assumed): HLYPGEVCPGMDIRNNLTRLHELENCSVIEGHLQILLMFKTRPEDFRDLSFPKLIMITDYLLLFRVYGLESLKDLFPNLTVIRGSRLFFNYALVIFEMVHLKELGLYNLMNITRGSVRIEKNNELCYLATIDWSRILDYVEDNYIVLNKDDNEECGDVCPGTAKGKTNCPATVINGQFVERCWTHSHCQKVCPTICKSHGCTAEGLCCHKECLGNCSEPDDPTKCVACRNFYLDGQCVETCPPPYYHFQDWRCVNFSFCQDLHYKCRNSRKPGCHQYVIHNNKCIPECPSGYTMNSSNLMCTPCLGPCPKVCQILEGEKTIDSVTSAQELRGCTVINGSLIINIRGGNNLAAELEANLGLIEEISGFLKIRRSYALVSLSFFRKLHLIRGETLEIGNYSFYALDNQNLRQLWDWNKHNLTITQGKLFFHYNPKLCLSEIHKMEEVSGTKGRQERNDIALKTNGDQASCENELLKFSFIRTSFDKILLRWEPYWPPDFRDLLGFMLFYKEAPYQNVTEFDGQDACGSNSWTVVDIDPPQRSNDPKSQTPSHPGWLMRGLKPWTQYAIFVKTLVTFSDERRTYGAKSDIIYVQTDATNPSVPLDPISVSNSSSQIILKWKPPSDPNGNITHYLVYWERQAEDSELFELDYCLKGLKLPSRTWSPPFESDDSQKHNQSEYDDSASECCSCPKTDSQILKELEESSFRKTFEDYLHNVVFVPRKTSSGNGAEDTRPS
Sequence of insulin receptors (P15127 764-1383 partner limits assumed): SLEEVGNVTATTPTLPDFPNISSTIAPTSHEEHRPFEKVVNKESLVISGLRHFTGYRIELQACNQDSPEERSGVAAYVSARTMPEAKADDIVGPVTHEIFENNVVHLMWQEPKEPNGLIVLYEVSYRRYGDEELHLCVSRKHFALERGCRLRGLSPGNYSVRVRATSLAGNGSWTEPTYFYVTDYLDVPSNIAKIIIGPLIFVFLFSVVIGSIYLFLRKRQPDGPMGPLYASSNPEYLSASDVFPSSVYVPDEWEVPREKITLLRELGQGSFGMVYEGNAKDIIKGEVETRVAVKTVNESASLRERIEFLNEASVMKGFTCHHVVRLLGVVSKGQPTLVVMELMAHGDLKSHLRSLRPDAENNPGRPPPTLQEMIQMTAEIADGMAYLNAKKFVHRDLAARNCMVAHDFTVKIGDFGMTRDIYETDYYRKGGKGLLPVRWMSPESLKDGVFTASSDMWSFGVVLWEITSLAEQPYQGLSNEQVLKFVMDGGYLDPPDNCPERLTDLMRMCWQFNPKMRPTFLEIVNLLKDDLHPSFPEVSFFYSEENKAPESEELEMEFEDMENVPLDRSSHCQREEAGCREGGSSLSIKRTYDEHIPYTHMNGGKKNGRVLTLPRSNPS

T1 sequence (P15127 27-759 limits assumed): as the sequence (P15127 27-759 limits assumed) above
T1 sequence (P15127 764-1383 partner limits assumed): as the sequence (P15127 764-1383 partner limits assumed) above
Procedure for rat adipocytes: The assays measured the ability of the insulin analogue as compared to bovine insulin to convert, [3-^3 H] glucose into lipids.
Adipocytes were prepared by incubating epididymal and perirenal fat pads obtained from male rats weighing 200-300 g with 1.0 mg/ml collagenase for 60 min at 37° C., followed by filtration through gauze and then through fine-mesh silk. Cells were washed twice by flotation in a clinical centrifuge before suspension for use. The incubation medium was Krebs-Ringer bicarbonate containing half the recommended calcium, 0.5 mM glucose, and 3% fatty acid free bovine serum albumin, with 95% O2 -5% CO2 as the gas phase. […] Cells were preincubated for 45 min at 37° C. before the addition of [3-^3 H] glucose. Incubation was continued for 60 min and stopped by the addition of 0.2 ml of 5N H2 SO4 and 0.2 ml of corn oil to aid in the extraction of lipids. Samples were extracted with 10 ml of Soluscint-0® for 30 min at room temperature before counting the radioactivity in a scintillation counter. […] Zero and 100% stimulation of lipogenesis were defined as radioactivity observed in the absence and presence, respectively, of 9.1×10^-10 M insulin (5.5 ng/ml).
Stimulation, expressed as percent of maximum, was plotted as a function of the agonist concentration. […]

[10-Aspartic acid-B] human insulin
Shape of dose response curves in receptor binding ([1]; compared with bovine insulin, FIG. 3): essentially parallel
Binding to the insulin receptor relative to natural insulins ([1]; more tightly than natural insulins): about five
Relative potency: concentration ratio required to inhibit 50% of specific 125I-insulin binding ([1]; relative to bovine insulin, rat liver plasma membranes, assay performed four times): about 534±146%
Agonist character / maximum stimulation of lipogenesis (rat adipocytes; compared with natural bovine insulin, FIG. 4): full agonist
Relative potency: concentration ratio required to produce 50% of maximum stimulation of lipogenesis (rat adipocytes; relative to bovine insulin, isolated rat adipocytes, assays performed four times): 435±144%
Potency in radioimmunoassay (ratio of slopes of Co/Ci plots) [2]: approximately equal potency
In vitro activity relative to natural insulin (in words) (insulin receptors): several fold more active
